Consider 8 molecules from ChEMBL document CHEMBL1132847, “Substituted 1,6-naphthyridines as human cytomegalovirus inhibitors: conformational requirements” (Bioorg Med Chem Lett, 2000).

Values after ≈ are worked out from the molar mass of the structure shown.

For the experiment, the system named is Human betaherpesvirus 5. As to the kind of experiment: Concentration required to inhibit human cytomegalovirus by 50 percent. It counts as functional, organism-based.
Turning to `COc1ccccc1CN(C)C(=O)c1ccc2cnccc2n1`, the IC50 – broadly, the point on the concentration scale where inhibition reaches its midpoint – was > 25 µg/mL. `CCOc1ccccc1CNC(=O)c1ccc2cnccc2n1` gave an IC50 of 0.1 µg/mL (≈ 0.325 µM). Turning to `O=C(NCc1ccccc1OC(F)(F)F)c1ccc2cnccc2n1`, the IC50 came out at 1 µg/mL (≈ 2.88 µM). This IC50 lies about 10-fold higher than the previous one. In turn, `Cc1cncc2ccc(C(=O)NCc3ccccc3OC(C)C)nc12` showed an IC50 of 0.0004 µg/mL (≈ 0.00119 µM). `CC(C)Oc1ccccc1CNC(=O)c1ccc2cnccc2n1` had an IC50 of 0.005 µg/mL (≈ 0.0156 µM).

Take `O=C(NC1CCCOc2ccccc21)c1ccc2cnccc2n1` (stereo not drawn): the IC50 came out at 0.5 µg/mL (≈ 1.57 µM).

`O=C(NC1CCOc2ccccc21)c1ccc2cnccc2n1` (stereo not drawn) registered an IC50 of 20 µg/mL (≈ 65.5 µM).

`Cc1ccccc1CNC(=O)c1ccc2cnccc2n1` had an IC50 of 1 µg/mL (≈ 3.61 µM).
